According to article PMC8333425, “Discovery of a dual Ras and ARF6 inhibitor from a GPCR endocytosis screen” (Nature Communications, 2021):
Several values for one entry are separate records, joined by “and”; a condition that tells them apart may be missing. Equal entries are not always repeated.

Legend:
[1] = test system: Ras; assay: GST-Raf1-RBD pull-down of AT1R-mediated Ras activation; type: cell-based, human; conditions: for Ras-GTP over total Ras, GST-Raf1-RBD pull-down, AT1R: Comp 21 50 μM, individual experiments
From the text: Since 21 inhibited both ERK1/2 and Akt activation by GPCRs and EGFR, we looked at a common target involved in both pathways. The small G protein Ras is an upstream regulator of both Ras-RAF-MEK-ERK and PI3K/Akt signaling pathways[35],[36]. Therefore, we explored 21’s ability to inhibit Ras activity using GST-Raf1-Ras-binding domain (RBD) in a pull-down assay. A reduction of 60% in GTP-bound Ras was noticed in pulled-down from cells treated with 21 and stimulated with either AT1R or EGFR, as compared to vehicle-treated cells (Fig. 4a, b). Complementary to this in vitro assay, we generated a Ras BRET assay, using the Raf-Ras binding domain tagged with RlucII (Raf1-RBD-RlucII) and the rGFP at the PM (rGFP-CAAX) (Supplementary Fig. 3c), to assess 21’s effects on Ras activation kinetics. […] Overexpression of either the active form of Ras (G12V) or SOS1 anchored at the PM (SOS-CAAX) produced a robust basal BRET signal that was no longer modulated by receptor activation (Supplementary Fig. 3d). […] 21’s potency to inhibit ARF6 and Ras is also consistent with its relative efficacy for inhibiting AT1R internalization and MAPK, respectively, when used at 50 μM (e.g., around 7 and 70 times the respective IC50s) (Figs. 2e and 3a). We also assessed if 21 was acting as a pan small G protein inhibitor by testing its effect on Rho and Rac/Cdc42. […] To assess Rac/Cdc42 activity, we generated a Rac/Cdc42 BRET sensor that consisted of the PAK-CRIB domain fused to RlucII (PAK-CRIB-RlucII) and the rGFP-CAAX (Supplementary Fig. 3e). PAK-CRIB, which binds to active Rac/Cdc42, was recruited to the PM upon AngII stimulation of cells and generated a robust BRET signal, which was blocked by the overexpression of the DN Rac1-T17N. Overexpression of the constitutively active Rac1-Q61L increased the basal BRET, which was no longer modulated by AT1R stimulation (Supplementary Fig. 3f).
Activation of ARF1, ARF6, Ras, and Rho were assessed by using GST pull-down assays. […] ImageLab 5.2 software was used to quantify the digital blots as fold of the amount of pulled down protein over total protein. […]

[2] = test system: AT1R; assay: Confocal microscopy of YFP-tagged AT1R internalization; type: cell-based, human; conditions: 50 μM; AngII
Experimental: One day before transfection, cells were seeded in 35-mm glass-bottom dishes (MatTek Corporation) at a density of 1 × 10^5 cells per dish. For the recordings of receptor internalization, HEK293 SL cells were transfected with 2 μg of AT1R-YFP. For the recordings of β-arrestin-2 recruitment to the receptor, HEK293SL cells were transfected with 50 ng of β-arrestin2-YFP and 250 ng of Flag-AT1R or HA-B2R. Forty-eight hours post-transfection, cells were serum starved, preincubated with DMSO (0.1% final concentration) or Rasarfin (50 μM) for 30 min at 37 °C. AT1R-expressing cells were stimulated with angiotensinII (AngII; 100 nM) and B2R-expressing cells were stimulated with bradykinin (BK; 1 μM) for 30 min (receptor-YFP) or 15 min (β-arrestin2-YFP). Cells were imaged with Zeiss LSM-510 and/or LSM-710 laser scanning confocal microscope. To detect YFP, […] and BP 505–550 nm emission filter. Images (2048 × 2048) were collected using a 63x oil immersion lens.

SMILES: CC(C)C(=O)N1CCN(c2ccc(NC(=O)c3cc4ccccc4o3)cc2Cl)CC1 [Compound 21]
- reduction in GTP-bound Ras, AT1R-stimulated cells (pull-down) ([1]; 50 μM, compared to vehicle-treated cells): 60%
- Ras-GTP over total Ras, GST-Raf1-RBD pull-down, AT1R ([1]; AngII): 0.2615 and 0.2571 and 0.1009 and 0.2909 and 0.08351
- Ras-GTP over total Ras, GST-Raf1-RBD pull-down, AT1R ([1]; Ctrl (no AngII)): 0.2526 and 0.08678 and 0.1353 and 0.1074 and 0.09399
- AT1R localization by microscopy [2]: remained trapped at the PM
